Data: PubChem BioAssay AID1645864 (Buhrlage Lab, Dana-Farber Cancer Institute and Novartis …, 2021)
pIC50: −log10 of the molar value. The source made the active and inactive calls.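 How the source made its calls: active means maximal inhibition of USP17 at or above 30% in the confirmation dose-response, a value not among the printed readouts; inactive means the rest.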

What follows are molecules tested against Ubiquitin carboxyl-terminal hydrolase 17-like protein 5 (Homo sapiens) (UniProt A8MUK1) (assay: ubiquitin-specific protease 17 inhibitors, concentration series, biochemical, verification of primary actives (AID 1645864)). Conditions: purified USP17, ubiquitin-rhodamine cleavage fluorescence, 3 h.
Sequence of Ubiquitin carboxyl-terminal hydrolase 17-like protein 5 (Homo sapiens) (A8MUK1 whole entry, looked up): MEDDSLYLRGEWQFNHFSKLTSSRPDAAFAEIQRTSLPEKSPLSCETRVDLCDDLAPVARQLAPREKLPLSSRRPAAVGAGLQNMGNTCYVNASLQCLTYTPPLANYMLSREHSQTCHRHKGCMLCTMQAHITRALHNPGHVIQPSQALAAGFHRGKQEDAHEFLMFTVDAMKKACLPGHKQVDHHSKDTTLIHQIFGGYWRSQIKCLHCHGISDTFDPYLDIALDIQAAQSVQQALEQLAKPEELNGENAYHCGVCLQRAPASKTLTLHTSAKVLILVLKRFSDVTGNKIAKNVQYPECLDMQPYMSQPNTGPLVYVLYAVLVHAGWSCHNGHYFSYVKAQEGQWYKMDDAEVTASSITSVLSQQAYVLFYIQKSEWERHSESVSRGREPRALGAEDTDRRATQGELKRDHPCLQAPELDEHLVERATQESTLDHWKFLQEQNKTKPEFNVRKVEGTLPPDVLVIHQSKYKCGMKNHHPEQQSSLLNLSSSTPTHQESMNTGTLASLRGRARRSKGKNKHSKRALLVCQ

| Compound | pIC50 | IC50 |
| --- | --- | --- |
| N#Cc1ccc(NC(=O)Nc2cccn(Cc3c(F)cccc3Cl)c2=O)cc1 | 5.41 | – |
| Cc1nn(C)c2c1[C@@H](c1ccc(F)c(Br)c1)[C@H](NC(=O)c1ccccc1)C(=O)N2 | – | > 50 µM (inactive) |
| COc1cc(Cn2cnc3c([nH]c4ccc(Br)cc43)c2=O)cc(OC)c1 | 5.43 | – |
| COc1cc(Cl)ccc1C(=O)Nc1cccc(-n2cnnn2)c1C | 5.35 | – |
| COc1cccc(S(=O)(=O)N2CCn3nc(C(C)(C)C)cc3C2)c1 | 4.41 | – |
| COC1=C(C2=C(OC)C(=O)c3cc4c(c(O)c3C2=O)C(=O)OC(C)C4)C(=O)c2c(cc3c(c2O)C(=O)OC(C)C3)C1=O (stereo not drawn) | 7.01 | – |
| COc1cccc(CC(=O)Nc2cc(F)c3nc(N4CCOCC4)ccc3c2)c1 | – | > 50 µM (inactive) |
| COc1ccc(C(C(=O)NCc2ccccc2)N(C(=O)CCN2CCc3ccccc32)c2ccc(C)c(C)c2)cc1 (stereo not drawn) | – | > 50 µM (inactive) |
| COc1ccc(C(=O)NCCc2nnc3ccc(SCC(=O)NCc4ccc(F)cc4)nn23)cc1 | 4.73 | – |
| COc1ccccc1NC(=O)CSC1=NC2(CCCCC2)Nc2ccccc21 | – | > 50 µM (inactive) |
| Cc1cccc(Cl)c1NC(=O)Nc1ccc(NC(=O)c2ccccc2O)cc1 | 4.45 | – |
| Cc1cc(C)cc(NC(=O)CSc2ccc(-c3ccncc3)nn2)c1 | – | > 50 µM (inactive) |
| Cc1cccc(CNC(=O)C2CCCN(S(=O)(=O)Cc3ccc(F)cc3)C2)c1 (stereo not drawn) | 4.72 | – |
| CC[C@@]1(O)C[C@H](OC2CC(N(C)C)C(OC3CC(O)C(OC4CCC(=O)C(C)O4)C(C)O3)C(C)O2)c2c(cc3c(c2O)C(=O)c2c(O)ccc(O)c2C3=O)[C@H]1C(=O)OC (stereo partly drawn) | 5.60 | – |
| Cc1ccc(Cc2nc(-c3ccc(=O)[nH]c3)no2)cc1 | – | > 50 µM (inactive) |
| COc1ccc(OC)c(NC(=O)c2cc(Cl)ccc2OC)c1 | 5.60 | – |
| Nc1c(C(=O)NCc2ccc3c(c2)OCO3)nnn1Cc1ccc(Br)cc1F | 5.55 | – |
| CCOc1ccc(NC(=O)CSc2nc3n[nH]c(C)c3c(=N)n2-c2ccc(OC)cc2)cc1 | – | > 50 µM (inactive) |
| COc1ccc(N2CCN(Cc3nnnn3Cc3ccc4c(c3)OCO4)CC2)cc1 | – | > 50 µM (inactive) |
| COc1cnc(-c2ccccn2)nc1Sc1ccccc1Cl | 4.79 | – |
| O=c1[nH]c(C2CCN(S(=O)(=O)c3ccc(S(=O)(=O)NC4CCCC4)cc3)CC2)nc2c1nnn2Cc1cccc(Cl)c1 | – | > 50 µM (inactive) |
| COC(=O)c1sc2ccccc2c1NC(=O)c1ccc(Br)s1 | 4.69 | – |
| CC1OC1C(=O)[C@]1(O)[C@H](C)[C@@H](O)[C@@]23O[C@@]2([C@H](O)c2c(O)cccc2C3=O)[C@H]1O (stereo partly drawn) | 4.75 | – |
| COc1ccc2nc3c(cc2c1)c(=O)n(C)c1c3c(=O)n(-c2ccccc2)c(=O)n1-c1ccccc1 | – | > 50 µM (inactive) |

| Compound | pIC50 | IC50 |
| --- | --- | --- |
| Cc1ccc(C2c3c(-c4ccccc4O)n[nH]c3C(=O)N2Cc2ccco2)cc1 (stereo not drawn) | 4.55 | – |
| CCCC(=O)Nc1nc2ccc(CCC(=O)NCc3ccc(F)cc3)cc2s1 | 4.60 | – |
| CCOc1ccc(NC(=O)COc2cccc(-n3cnnn3)c2)cc1 | – | > 50 µM (inactive) |
| O=C(NCCc1ccccc1)c1nnn(Cc2cccc(Cl)c2)c1-n1cccc1 | – | > 50 µM (inactive) |
| O=C(CNC(=O)OCc1ccccc1)Nc1ccc(Br)cc1C(=O)c1ccccc1Cl | 5.02 | – |
| CN(C)CCc1cc2c(c3c1ccc1ccccc13)OCO2 | – | > 50 µM (inactive) |
| Cc1nc2c3ccccc3nc(NCc3ccc4c(c3)OCO4)n2n1 | 4.47 | – |
| COc1ccccc1-c1nc(-c2nnn(Cc3ccc(C)cc3)c2C)no1 | – | > 50 µM (inactive) |
| O=C(CN1C(=O)C2CCCC2=Nc2ccccc21)Nc1ccc(F)cc1F (stereo not drawn) | 4.49 | – |
| Cc1cc2nc(-c3ccc(SCc4ccccn4)nc3)[nH]c2cc1C | 4.51 | – |
| Cn1cc(NC(=O)Nc2cccc3ccccc23)c2ccccc21 | 4.49 | – |
| N#Cc1cccc(NC(=O)Nc2cccn(Cc3ccccc3F)c2=O)c1 | 4.68 | – |
| O=C(COC(=O)c1ccc(Cl)cc1)Nc1ccc2[nH]c(=O)[nH]c2c1 | 5.00 | – |
| Cc1cccc(C(=O)Nc2cccc(SC(C(=O)Nc3ccc(O)c(C(=O)O)c3)c3ccccc3)c2)c1 (stereo not drawn) | 4.94 | – |
| CC(C)CC1NC(=O)C2CCCN2C1=O (stereo not drawn) | 4.43 | – |
| CC(C)N1CC[C@@H]2[C@H](C1)CN2C(=O)Nc1cccc(F)c1 | – | > 50 µM (inactive) |
| Cc1cc(-n2c(C)cc(-c3csc(N)n3)c2C)no1 | – | > 50 µM (inactive) |
| COc1ccc(CC(=O)Nc2ccc3nc(N4CCOCC4)cc(C)c3c2)cc1 | 4.62 | – |
| CC(CCc1ccccc1)NC(=O)Cn1c(=O)c2cccn2c2ccccc21 (stereo not drawn) | 4.93 | – |
| O=S1(=O)CCN(Cc2cccnc2)c2c(F)nc(N3CCOCC3)c(F)c21 | – | > 50 µM (inactive) |
| CCCN1C=NS(=O)(=O)c2cc(C(=O)Nc3ccc(OC)c(Cl)c3)ccc21 | 4.39 | – |
| Cc1ccc2[nH]cc(S(=O)(=O)c3ccc(C)c(F)c3)c(=O)c2c1 | 4.37 | – |
| COc1cc([C@@H]2c3cc4c(cc3C[C@@H]3COC(=O)[C@H]32)OCO4)cc(OC)c1OC | 4.76 | – |
| O=C(c1ccc(Cl)cc1)c1c[nH]cc1-c1c(F)cccc1Cl | 4.44 | – |
